Legend:
Conditions in all cases: 48 h
[1] = tested on: SEM cells; assay: AUC of viability dose-response curve (% viability x log10 dose units); higher = less sensitive
Outline: (§1)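 Library compounds in DMSO were applied for 48 h at 37°C at 11 threefold doses (47 μM to 0.79 nM) to medium-adapted leukemia cells in 1536-well plates holding 500 or 1000 cells/well. Luminescence from CellTiter-Glo One was normalised plate by plate against DMSO and cell-free wells. Area under the curve came from trapezoidal integration of a log-logistic fit, after scaling curves that rose above full viability and discarding those that failed quality control. The fit had four parameters and used log10 doses.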

[2] = tested on: NOMO1; assay: as above
Outline: as §1

[3] = tested on: P12-Ichikawa; assay: as above
Outline: as §1

[4] = tested on: SEM cells; assay: cell viability relative to DMSO control; higher = less cytotoxic
Outline: (§2)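 NOMO1 or SEM (500 cells/well) or P12-Ichikawa (1000 cells/well) leukemia cells were adapted for at least four passages in each medium. They were seeded in 1536-well plates (5 μl) and pin-dosed with library compounds in DMSO over an 11-point threefold series, 47 μM to 0.79 nM. CellTiter-Glo One luminescence was read after 48 h at 37°C. Viability is the per-plate percentage relative to DMSO wells, with cell-free wells as background.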

[5] = tested on: NOMO1; assay: as above
Outline: as §2

Cc1cn([C@H]2C=C[C@@H](CO)O2)c(=O)[nH]c1=O
AUC of viability dose-response curve
Conditions	[1]	[2]	[3]
HPLM + 10% dialyzed FBS	465	474	468
RPMI 5 mM glucose + 10% FBS	450	435	475
RPMI 5 mM glucose + 10% dialyzed FBS	469	453	474

cell viability [%]
Conditions	HPLM + 10% dialyzed FBS	RPMI 5 mM glucose + 10% FBS	RPMI 5 mM glucose + 10% dialyzed FBS
[4], 0.000781 µM	88.9	89.5	91.2
[4], 0.00234 µM	106	110	93.9
[4], 0.00702 µM	104	109	104
[4], 0.0211 µM	124	108	112
[4], 0.0632 µM	114	110	118
[4], 0.19 µM	99.6	107	96.4
[4], 0.569 µM	109	117	107
[4], 1.71 µM	130	110	125
[4], 5.12 µM	127	104	116
[4], 15.4 µM	112	126	104
[4], 46.1 µM	103	106	74.2
[5], 0.000781 µM	105	88.6	–
[5], 0.00234 µM	101	–	–
[5], 0.00702 µM	116	–	–
[5], 0.0211 µM	123	–	–
[5], 0.0632 µM	101	–	–
[5], 0.19 µM	114	–	–
[5], 0.569 µM	125	–	–
[5], 1.71 µM	115	–	–
[5], 5.12 µM	96.4	–	–
[5], 15.4 µM	108	–	–
[5], 46.1 µM	107	–	–
